Test system: cannabis high (psychotropic effects of THC)
Assay: real-life, non-clinical trials by volunteers: oral Olivetol softgel taken at peak of cannabis high, self-reported effects
Type: in vivo, human
Settings: consumed before or after THC; general statement of the inventors
Procedure: A number of real-life, non-clinical trials have been performed by volunteers, to test the effects of the consumption of embodiments of the present invention, the conditions and results of which are described as follows. All tests were performed in “real life,” rather than clinical conditions. Various methods of consumption of cannabis were used, such as consumption of edibles, inhalation of cannabis smoke, or inhalation of vapor, depending upon the volunteer's preference. Some subjects reported their pre-consumption mood, pain level, etc., as well as their level of experience with consumption of cannabis. After sufficient exposure to cannabis, each subject indicated when their euphoria or “high” had reached a high level or a peak. Then, the subject took one or more oral doses of an embodiment of the present invention, containing 30 mg of Olivetol combined with edible oil in a “softgel” pill. A timer was started and the subject then reported when they felt an awareness of a decrease or reduction in their euphoria or other cannabis effects, as well as their subjective feelings, mood, pain level or other observations, until they self-reported that their cannabis effects were concluded. […]

Question: With CCCCCc1cc(O)cc(O)c1 [Olivetol, 5-pentylresorcinol] as the compound, how does the “effect of Olivetol consumption on psychotropic effects of THC” value read?
Answer: significantly reduce the psychotropic effects of THC ingestion
